Holding throughout (format): cell-based
Assay [1] concerns the target T1, Calcium-activated potassium channel alpha/beta 1 (Homo sapiens) (UniProt Q12791+Q16558). Put plainly: Activation of human BKCA alpha/beta1 channel expressed in HEK293 cells assessed as increase of rubidium efflux after 10 mins in presence paxilline.
For assay [2], the target named is Calcium-activated potassium channel subunit alpha-1 (Homo sapiens) (UniProt Q12791). Description: Activation of human BKCA alpha channel expressed in HEK293 cells assessed as increase of rubidium efflux at 100 uM after 10 mins in presence of paxilline.
Assay [3] deals with T1, Calcium-activated potassium channel alpha/beta 1 (Homo sapiens). Description: Activation of human BKCA alpha/beta1 channel expressed in HEK293 cells assessed as increase of rubidium efflux after 10 mins in presence iberiotoxin.
Assay [4] addresses Calcium-activated potassium channel subunit alpha-1 (Homo sapiens) (UniProt Q12791). Description: Activation of human BKCA alpha channel expressed in HEK293 cells assessed as increase of rubidium efflux at 100 uM after 10 mins in presence of iberiotoxin.
For assay [5], the target named is T1, Calcium-activated potassium channel alpha/beta 1 (Homo sapiens). Description: Activation of human BKCA alpha/beta1 channel expressed in HEK293 cells assessed as increase of rubidium efflux after 10 mins relative to control.
Assay [6] concerns the target Calcium-activated potassium channel subunit alpha-1 (Homo sapiens) (UniProt Q12791). Put plainly: Activation of human BKCA alpha channel expressed in HEK293 cells assessed as increase of rubidium efflux after 10 mins relative to control.
Assay [7] has the same target. Put plainly: Activation of human BKCA alpha channel expressed in HEK293 cells assessed as increase of rubidium efflux after 10 mins.
The target is the same in assay [8]. Description: Activation of human BKCA alpha channel expressed in HEK293 cells assessed as increase in intracellular calcium level at 10 uM after 30 mins.
Assay [9] deals with T1, Calcium-activated potassium channel alpha/beta 1 (Homo sapiens). Put plainly: Activation of human BKCA alpha/beta1 channel expressed in HEK293 cells assessed as increase of rubidium efflux after 10 mins.
The target in assay [10] is Calcium-activated potassium channel subunit alpha-1 (Homo sapiens) (UniProt Q12791). Put plainly: Activation of human BKCA alpha channel expressed in HEK293 cells assessed as increase in intracellular calcium level at 0.1 uM after 30 mins.
Assay [11] shares this target. Put plainly: Activation of human BKCA alpha channel expressed in HEK293 cells assessed as increase in intracellular calcium level at 100 uM after 30 mins.
Assay [12] has the same target. Description: Activation of human BKCA alpha channel expressed in HEK293 cells assessed as increase in intracellular calcium level at 50 uM after 30 mins.

The source of these data is ChEMBL document CHEMBL2396582, “Large conductance Ca(2+)-activated K(+) channel (BKCa) activating properties of a series of novel N-arylbenzamides: Channel subunit dependent effects” (Bioorg Med Chem, 2013).

Activity calls are given as the source filed them. The calls are words filed in the database; no cut-off is given here.

Chain of Calcium-activated potassium channel subunit alpha-1 (Homo sapiens) (Q12791 whole entry): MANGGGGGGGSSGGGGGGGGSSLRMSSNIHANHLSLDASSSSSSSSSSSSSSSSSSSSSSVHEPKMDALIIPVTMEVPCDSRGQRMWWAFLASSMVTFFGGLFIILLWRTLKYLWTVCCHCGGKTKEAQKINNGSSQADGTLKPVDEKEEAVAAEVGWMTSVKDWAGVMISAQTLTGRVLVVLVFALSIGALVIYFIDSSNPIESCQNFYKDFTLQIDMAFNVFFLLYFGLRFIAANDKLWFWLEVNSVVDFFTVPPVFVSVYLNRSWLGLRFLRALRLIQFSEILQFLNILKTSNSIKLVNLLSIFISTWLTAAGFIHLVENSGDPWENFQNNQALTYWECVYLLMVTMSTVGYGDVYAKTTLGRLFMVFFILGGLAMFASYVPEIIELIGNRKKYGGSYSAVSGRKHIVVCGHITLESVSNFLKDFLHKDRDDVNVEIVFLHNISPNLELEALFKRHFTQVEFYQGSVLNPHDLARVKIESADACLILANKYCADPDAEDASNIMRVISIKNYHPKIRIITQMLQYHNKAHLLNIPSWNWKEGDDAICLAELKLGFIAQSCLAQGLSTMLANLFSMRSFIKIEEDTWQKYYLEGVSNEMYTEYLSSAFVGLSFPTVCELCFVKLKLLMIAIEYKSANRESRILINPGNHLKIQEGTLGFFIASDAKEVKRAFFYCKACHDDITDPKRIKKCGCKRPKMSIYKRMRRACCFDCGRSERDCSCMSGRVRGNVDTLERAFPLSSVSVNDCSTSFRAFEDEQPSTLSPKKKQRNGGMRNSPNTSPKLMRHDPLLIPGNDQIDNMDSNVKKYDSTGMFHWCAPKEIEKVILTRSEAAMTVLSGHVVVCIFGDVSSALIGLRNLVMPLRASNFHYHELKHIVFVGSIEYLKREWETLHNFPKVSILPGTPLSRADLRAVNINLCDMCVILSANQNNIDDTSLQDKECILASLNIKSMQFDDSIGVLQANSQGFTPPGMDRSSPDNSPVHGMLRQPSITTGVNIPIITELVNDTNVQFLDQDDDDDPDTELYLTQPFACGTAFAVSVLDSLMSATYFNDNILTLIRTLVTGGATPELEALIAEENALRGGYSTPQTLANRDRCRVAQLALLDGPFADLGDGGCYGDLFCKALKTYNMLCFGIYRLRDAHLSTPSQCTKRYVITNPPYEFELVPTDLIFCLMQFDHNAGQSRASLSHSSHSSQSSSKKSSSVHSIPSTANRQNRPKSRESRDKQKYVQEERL

For the compound `O=C(Nc1cc(Cl)ccc1O)c1ccccc1`, the outcome in assay [1], in [2], in [3] and in assay [4] was inactive. In addition, the Emax in assay [5] is 32.9%; in assay [6] it was 62.5%. Besides, the EC40 in assay [7] worked out at 1.41 µM.
Take `CNc1ccc2oc(C[C@H]3O[C@@]4(CC[C@H]3C)O[C@H]([C@H](C)C(=O)c3ccc[nH]3)[C@H](C)C[C@H]4C)nc2c1C(=O)O`: the Activity in [8] turned out to be 416%.
On to `COc1ccc(Cl)cc1C(=O)Nc1ccccn1`, for which the result in assay [1], in assay [2], in [3] and in [4] was inactive. For the same compound, the Emax in [5] came to 42%; in assay [6] it was 49.1%. Further, the results for the EC40 in assay [9] and in assay [7] were 46.8 µM and 4.47 µM, respectively.
Take `Cc1ccccc1C(=O)Nc1cc(Cl)ccc1O`: the result in assay [1], in assay [2], in assay [3] and in assay [4] was inactive. In addition, the figures for the Emax in [5] and in [6] were 56.8% and 59.7%, respectively. The EC40 in assay [9] turned out to be 3.63 µM; in assay [7] it was 2.95 µM.
Regarding `Cc1ccc(NC(=O)c2ccccc2O)c([N+](=O)[O-])c1`, the outcome in [1], in assay [2], in assay [3] and in assay [4] was inactive. Moreover, the Emax turned out to be 54.4% in [5] and 86.4% in assay [6]. The EC40 in assay [9] is 1.41 µM; in assay [7], 0.56 µM.
For the compound `CC(C)[C@@]1(O)[C@@H](OC(=O)c2cc[nH]c2)[C@@]2(O)[C@]3(C)C[C@@]4(O)O[C@@]5([C@H](O)[C@@H](C)CC[C@]35O)[C@@]2(O)[C@@]41C`, the Activity in assay [10] was found to be 38.1%.
Take `COc1ccc(Cl)cc1C(=O)Nc1cccnc1`: the outcome in assay [1], in assay [2], in assay [3] and in assay [4] was inactive. Moreover, the results for the Emax in assay [5] and in assay [6] were 68.8% and 72.5%, respectively. The EC40 in assay [9] was 3.47 µM; in [7], 0.31 µM.
Take `O=c1[nH]c2cc(C(F)(F)F)ccc2n1-c1cc(C(F)(F)F)ccc1O`: the Activity in assay [11] came out at 5.3%. In addition, the result in assay [1], in assay [2], in assay [3] and in assay [4] was inactive. Also, the Emax in assay [5] is 76.6%; in assay [6] it was 61.7%. Moreover, the results for the EC40 in assay [9] and in [7] were 0.79 µM and 0.35 µM, respectively.
As for `CCOc1ccccc1C(=O)Nc1cc(Cl)ccc1O`, the Activity in assay [11] was determined as 6.2%. Further, the result in assay [1], in [2], in assay [3] and in assay [4] was inactive. The Emax in assay [5] stood at 99.5%; in assay [6], 69.9%. Besides, the EC40 in assay [9] amounted to 0.12 µM; in assay [7], 0.21 µM.
Take `COc1ccc(Cl)cc1C(=O)Nc1ccncc1`: the outcome in assay [1], in [2], in assay [3] and in [4] was inactive. The results for the maximum response (Emax) in assay [5] and in assay [6] were 65.1% and 99.2%, respectively. Also, the EC40 came out at 4.16 µM in assay [9] and 1.12 µM in [7].
For the compound `C=C[C@@]1(C)CC(=O)[C@]2(O)[C@@]3(C)[C@@H](O)CCC(C)(C)[C@@H]3[C@H](O)[C@H](OC(C)=O)[C@@]2(C)O1`, the Activity in [12] was found to be 22.3%.
